Assays:
[1] = system: Pde4; assay: qPCR of host Pde4 gene expression in Mtb-infected mouse lungs; format: in vivo, mice; conditions: 14 days of treatment (28 days postinfection)
Description: Total lung RNA (200 ng) was reverse-transcribed using Sprint RT kit (Clontech, CA, USA); 10 ng of cDNA were used for quantitative real-time PCR (qPCR), with Brilliant II SYBR master mix (Agilent Technologies, CA, USA) and gene-specific primers in a Stratagene Mx3005P instrument (Agilent Technologies, CA, USA). ROX was included in each reaction as an internal control. The qPCR assay was performed using four mouse samples in duplicate per group; the data were analyzed using MxPro Software (Agilent Technologies, CA, USA). Transcript levels of Gapdh were used as a reference against the test genes. Fold change in gene expression was calculated using the formula 2^−ΔΔCt, where ΔCt is the difference in threshold cycle (Ct) between the target gene and Gapdh; and ΔΔCt is the […] between untreated and CC-11050-treated samples. Primers were designed based on nucleotide sequences obtained from PrimerBank.^3

[2] = system: Mtb-infected mouse lungs; assay: Genome-wide lung transcriptome (microarray, IPA network/GO analysis) of Mtb-infected mice; format: in vivo; conditions: TNF-a regulon network

CCOc1cc([C@@H](CS(C)(=O)=O)N2Cc3cccc(NC(=O)C4CC4)c3C2=O)ccc1OC [CC-11050, N-[2-[(1S)-1-(3-ethoxy-4-methoxyphenyl)-2-(methylsulfonyl)ethyl]-2,3-dihydro-3-oxo-1H-isoindol-4-yl]-(9Cl) cyclopropanecarboxamide]
Pde4Bv3 (Pde4B variant 3) expression in lungs versus Mtb-infected untreated [1]: No significant change
Ins1 expression [2]: 0
